Like-named read-outs stand apart in the source and are kept apart here. Marks after values point to notes of the source that are not given here.
Experiments:
COLO 205 cells = test: MTS cytotoxicity test with COLO 205 cells; assay type: cell-based, human; conditions: three days with compound
Method: (§1) The assay, which is sold in kit form by Promega (Madison, Wis.; CellTiter 96 AQueous Non-Radioactive Cell Proliferation Assay), is based on the conversion by viable cells, but not by dead cells, of the tetrazolium salt, MTS (3-(4,5-dimethylthiazol-2-yl)-5-(3-carboxymethoxyphenyl)-2-(4-sulphophenyl)-2H-tetrazolium, inner salt), into a water-soluble colored formazan which is detected by spectrophotometry. Compounds are tested at nine concentrations, in order to determine IC50 values. For the test procedure, cells are harvested by trypsinization, washed, counted and distributed to wells of 96-well flat-bottom microtiter plates at 1000 cells per well in 200 μL of medium. In addition, one row of wells on a separate plate receives cells as above (“time 0” plate). All plates are incubated at 37° in humidified 5% CO2 in air for about 24 hr.
On day 2, compounds for test are diluted and added to wells. Compounds are dissolved in DMSO at 10 mg/mL. For each compound, nine serial 2-fold dilutions are prepared in DMSO. Ten μL of each dilution in DMSO are transferred to 100 μL of medium, mixed well, and then 5 μL of this dilution are transferred in quadruplicate to wells containing cells. The final high concentration of each compound is typically 5 μM. Plates are returned to the incubator for three days. At the time of drug addition to the experimental plates, the MTS assay is run on the “time 0” plate. This produces the “time 0 MTS value” which is related to the number of viable cells per well at the time of drug addition.
After three days of culture with test compounds (day 5 overall), the MTS assay is done on all wells of the experimental plates. The absorbance values of the quadruplicate sample wells are averaged and divided by the average of the “time 0” values. The average of control wells without drug, divided by the average “time 0” value, gives the maximal relative increase in MTS color yield due to cell growth during the final three days of culture. The average of control wells with high drug concentration, divided by the “time 0” value, gives the minimal relative color yield for cells that were completely killed. The nine values for each compound are plotted against concentration, and the concentration that produces a relative color yield half way between the maximum and minimum is taken as the IC50 value.
COLO 205 is a human colon carcinoma cell line that is used for comparative testing of the examples of this invention and several reference compounds. This line is sensitive to paclitaxel and vincristine.

KB cells = test: MTS cytotoxicity test with KB cells; assay type: cell-based, human; conditions: mean of 2 experiments
Text: (§2) Human cancer cell lines, unless otherwise noted, are obtained from the American Type Culture Collection (Rockville, Md.). The following drug-sensitive parental cell lines, and their derived drug-resistant counterparts, are obtained from the originators as listed: (a) S1 (parental line from a subclone of human colon carcinoma line LS174T) and derived S1-M1-3.2 (herein called S1-M1) which expresses the MXR drug transporter protein, are provided by Dr. L. Greenberger, Wyeth Research (Rabindran, S. K., He, H., Singh, M., Brown, E., Collins, K. I., Annable, T., and Greenberger, L. M. Reversal of a novel multidrug resistance mechanism in human colon carcinoma cells by fumitremorgin C. Cancer Res., 58: 5850-5858, 1998); (b) parental HL-60 human promyelocytic leukemia line and derived HL-60/ADR, which expresses the MRP1 drug transporter protein, are provided by Dr. M. Center, University of Kansas (McGrath, T., and Center, M. S. Adriamycin resistance in HL60 cells in the absence of detectable P-glycoprotein. Biochem. Biophys. […] J. Biol. Chem., 261: 7762-7770, 1986) via Dr. L. Greenberger, Wyeth Research.
as §1
(§3) On day 2, compounds for test are diluted and added to wells. Compounds are dissolved in DMSO at 10 mg/mL. For each compound, nine serial 2-fold dilutions are prepared in DMSO. Ten μL of each dilution in DMSO are transferred to 100 μL of medium, mixed well, and then 5 μL of this dilution are transferred in quadruplicate to wells containing cells. […] Plates are returned to the incubator for three days. At the time of drug addition to the experimental plates, the MTS assay is run on the “time 0” plate. This produces the “time 0 MTS value” which is related to the number of viable cells per well at the time of drug addition.
(§4) After three days of culture with test compounds (day 5 overall), the MTS assay is done on all wells of the experimental plates. The absorbance values of the quadruplicate sample wells are averaged and divided by the average of the “time 0” values. […] The nine values for each compound are plotted against concentration, and the concentration that produces a relative color yield half way between the maximum and minimum is taken as the IC50 value.

KB-8-5 cells = test: MTS cytotoxicity test with KB-8-5 cells (moderate P-glycoprotein); assay type: cell-based, human; conditions: for IC50: KB 8.5 cells, mean of 2 experiments; for Ratio 8.5/KB: IC50 on KB 8.5 cells/IC50 on KB cells
Text: as §2, §1, §3, §4

KB-V1 cells = test: MTS cytotoxicity test with KB-V1 cells (very high P-glycoprotein); assay type: cell-based, human; conditions: for Ratio VI/KB: IC50 on KB VI cells/IC50 on KB cells; for IC50: KB VI cells, mean of 2 experiments; for recognition by P-glycoprotein: inferred from change in IC50 KB-V1 vs KB
Text: as §2, §1, §3, §4

HL-60 cells = test: MTS cytotoxicity test with HL-60 cells; assay type: cell-based, human; conditions: mean of 2 experiments
Text: as §2, §1, §3, §4
(§5) HL-60/ADR cells overexpress the multidrug resistance protein MRP1 which mediates resistance to some chemotherapeutics (Gottesman, M. M., Fojo, T., and Bates, S. E. Multidrug resistance in cancer: role of ATP-dependent transporters. Nature Rev. Cancer, 2: 48-58, 2002). The IC50 values of representative examples of this invention, as well as reference compounds, on HL-60/ADR are compared to values on the sensitive parental HL-60 line.

HL-60/ADR cells = test: MTS cytotoxicity test with HL-60/ADR cells (MRP1); assay type: cell-based, human; conditions: for IC50: HL-60/ADR cells, mean of 2 experiments; for Ratio: IC50 on HL-60/ADR cells/IC50 on HL-60 cells
Text: as §2, §1, §3, §4, §5

S1 cells = test: MTS cytotoxicity test with S1 cells; assay type: cell-based, human; conditions: mean of 2 experiments
Text: as §2, §1, §3, §4
as §5, with “S1-M1” for “HL-60/ADR”, “MXR transporter” for “multidrug resistance protein MRP1”, “Miltidrug” for “Multidrug”, “S1” for “HL-60”

S1-M1 cells = test: MTS cytotoxicity test with S1-M1 cells (MXR); assay type: cell-based, human; conditions: for Ratio: IC50 on S1-M1 cells/IC50 on S1 cells; for IC50: S1-M1 cells, mean of 2 experiments
Text: as §2, §1, §3, §4
as §5, with “S1-M1” for “HL-60/ADR”, “MXR transporter” for “multidrug resistance protein MRP1”, “Miltidrug” for “Multidrug”, “S1” for “HL-60”

[1] = system: H157 Human Non-Small Cell Lung Carcinoma; conditions: for T/C on day 0 / T/C on day 3 / T/C on day 7 / T/C on day 10 / T/C on day 13: schedule day 0;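 as to all read-outs here: subcutaneous flank tumors in female athymic nu/nu mice, staged near 100 mm^3 on day 0, tumor volume from caliper measurements, vehicle-dosed controls on the same schedule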
Method: The ability of compounds of this invention to inhibit tumor growth in animals is studied in the athymic mouse xenograft standard pharmacological test. Female nu/nu mice in an outbred albino background are obtained from Charles River Laboratories (Wilmington, Mass.). Animals are injected subcutaneously on the flank with the desired tumor cell suspension. Several days later, mice with tumors of approximately 100 mm^3 are selected from those injected (staged) and randomly distributed into groups of 5-10. The day of staging is called day 0. Compounds of the invention, formulated in saline, are administered to animals by intravenous injection or oral gavage on various schedules starting on day 0 or 1, as noted in the tables. The control group in each experiment is dosed with vehicle on the same schedule. Tumor size is measured every 3-7 days with calipers in two orthogonal dimensions, and tumor volume is calculated from the formula volume=[(length×width^2)/2].
Tumor/Control (T/C) is obtained by dividing the mean tumor volume of the treated group by the mean tumor volume of the control group on each measurement day. […] A p value≦0.05, determined by one-side Student's t-test, is required for statistical significance. A treatment dose is defined as toxic if more than 30% of the animals die from a compound-related toxicity.

MAP-rich tubulin = test: Tubulin polymerization test with MAP-rich tubulin; assay type: biochemical, bovine; conditions: 0.3 μM compound, mean A340 at 20 min, fold enhancement over control
Method: Medium is RPMI-1640 with L-glutamine, supplemented with 10% heat-inactivated fetal calf serum, 100 units/mL penicillin, and 100 μg/mL streptomycin (Gibco, Grand Island, N.Y.). Microtubule-associated protein (MAP)-rich tubulin, containing about 70% tubulin and 30% MAPs (#ML113), and highly purified tubulin (>99% pure, #TL238), both from bovine brain, are obtained from Cytoskeleton, Inc., Denver, Colo. PEM buffer (80 mM piperazine-N,N′-bis[2-ethanesulfonic acid], pH 6.9, 1 mM ethylene glycol-bis(β-aminoethyl ether)-N,N,N′,N′-tetraacetic acid, 1 mM magnesium chloride) and guanosine 5′-triphosphate (GTP) are also obtained from Cytoskeleton. […] [^3H]vinblastine, specific activity 9.60 Ci/mmol and MicroSpin G-50 columns are obtained from Amersham Biosciences (Piscataway, N.J.). […] Other reagents are obtained from Sigma (St. Louis, Mo.).
MAP-rich tubulin is dissolved in ice-cold PEM buffer containing 1 mM GTP (GPEM buffer) at a concentration of 1.3 mg/mL. The solution is centrifuged at top speed in an Eppendorf model 5415C microcentrifuge (Brinkmann Instruments, Westbury, N.Y.) for 10 min at 4° immediately before use. The tubulin solution is added to wells of a ½-area 96-well plate (Costar No. 3696, Corning, Inc., Corning, N.Y.) already containing the compounds of interest. Each compound is tested in duplicate at a final concentration of 0.3 μM in a volume of 110 μL per well. The final DMSO concentration in all wells is 0.3%. Control reactions, which receive compound solvent only, are done in quadruplicate. The plate is put in a SpectraMax Plus plate reader (Molecular Devices Corp. Sunnyvale, Calif.) thermostated at 24° and the absorbance of each well at 340 nm, a measure of the appearance of turbidity due to tubulin polymer formation, is determined every minute for 60 minutes. The absorbance at time 0 for each well is subtracted from each of the subsequent absorbance readings for that well, and then the duplicates are averaged.

| SMILES | Ratio VI/KB (KB-V1 cells) | recognition by P-glycoprotein (KB-V1 cells) | Ratio (HL-60/ADR cells) | Ratio (S1-M1 cells) | IC50 (COLO 205 cells; Homo sapiens, 72 h) | IC50 (KB cells; Homo sapiens) | IC50 (KB-8-5 cells; Homo sapiens) | IC50 (KB-V1 cells; Homo sapiens, KB-V1) | IC50 (HL-60 cells; Homo sapiens) | IC50 (HL-60/ADR cells; Homo sapiens, HL60/ADR) | IC50 (S1 cells; Homo sapiens) | IC50 (S1-M1 cells; Homo sapiens) | Ratio 8.5/KB (KB-8-5 cells) | other results |
| --- | --- | --- | --- | --- | --- | --- | --- | --- | --- | --- | --- | --- | --- | --- |
| CN(C)CCCOc1cc(F)c(-c2c(Cl)nc(-c3cnccn3)nc2NCC(F)(F)F)c(F)c1.Cl [Example 25a, 6-Chloro-5-{4-[3-(dimethylamino)propoxy]-2,6-difluorophenyl}-2-pyrazin-2-yl-N-(2,2,2-trifluoroethyl)pyrimidin-4-amine hygrogen chloride] | 4.9 | show recognition by P-glycoprotein, but much less than that shown by paclitaxel and vincristine | 0.9 | 1.3 |  |  |  |  |  |  |  |  |  | IC50 (COLO 205 cells): 18 nM; IC50 (KB cells): 20 nM; IC50 (KB-8-5 cells): 24 nM; IC50 (KB-V1 cells): 99 nM; IC50 (HL-60 cells): 23 nM; IC50 (HL-60/ADR cells): 21 nM; IC50 (S1 cells): 27 nM; IC50 (S1-M1 cells): 36 nM; T/C on day 0 ([1]; 5 mg/kg IV, H157 (Table 10)): 1.02; T/C on day 3 ([1]; 5 mg/kg IV, H157 (Table 10)): 0.69*; T/C on day 7 ([1]; 5 mg/kg IV, H157 (Table 10)): 0.44**; T/C on day 10 ([1]; 5 mg/kg IV, H157 (Table 10)): 0.29**; T/C on day 13 ([1]; 5 mg/kg IV, H157 (Table 10)): 0.23**; T/C on day 0 ([1]; 10 mg/kg IV, H157): 1.01; T/C on day 3 ([1]; 10 mg/kg IV, H157): 0.49**; T/C on day 7 ([1]; 10 mg/kg IV, H157): 0.36**; T/C on day 10 ([1]; 10 mg/kg IV, H157): 0.22**; T/C on day 13 ([1]; 10 mg/kg IV, H157): 0.12**; compound toxicity ([1]; H157 NSCLC, intravenously on day 0, highest dose (10 mg/kg)): some compound toxicity is observed |
| CN(C)CCCOc1cc(F)c(-c2c(Cl)nc(-c3ccc4ccccc4n3)nc2NCC(F)(F)F)c(F)c1 [Example 30, 6-Chloro-5-{4-[3-(dimethylamino)propoxy]-2,6-difluorophenyl}-2-quinolin-2-yl-N-(2,2,2-trifluoroethyl)pyrimidin-4-amine] |  |  | 0.8 | 1.5 | 7.4 nM | 60 nM | 68 nM | 82 nM | 88 nM | 71 nM | 138 nM | 201 nM |  |  |
| CNc1nc(Cl)c(-c2c(F)cc(OCCCN(C)C)cc2F)c(NCC(F)(F)F)n1.O=C(O)C(F)(F)F [Example 20a, 6-Chloro-5-{4-[3-(dimethylamino)propoxy]-2,6-difluorophenyl}-N^2-methyl-N^4-(2,2,2-trifluoroethyl)pyrimidine-2,4-diamine trifluoroacetic acid salt] | 5.5 | show recognition by P-glycoprotein, but much less than that shown by paclitaxel and vincristine | 0.9 | 0.9 | 56 nM | 26 nM | 57 nM | 140 nM | 72 nM | 68 nM | 95 nM | 82 nM |  |  |
| CC(=O)O[C@@]12CO[C@@H]1C[C@H](O)[C@@]1(C)C(=O)[C@H](O)C3=C(C)[C@@H](OC(=O)[C@H](O)[C@@H](NC(=O)OC(C)(C)C)c4ccccc4)C[C@@](O)([C@@H](OC(=O)c4ccccc4)[C@H]21)C3(C)C [Docetaxel, reference compound] |  |  |  |  |  |  |  |  |  |  |  |  |  | A340 Compound / A340 Control (MAP-rich tubulin): 8.6 |
| COc1cccc2c1C(=O)c1c(O)c3c(c(O)c1C2=O)C[C@@](O)(C(=O)CO)C[C@@H]3O[C@H]1C[C@H](N)[C@H](O)[C@H](C)O1 [Doxorubicin, reference compound] | >79 |  | >75 | 47 |  | 38 nM | 255 nM | > 300 nM | 40 nM | > 3000 nM | 61 nM | 2880 nM | 6.8 | Ratio VI/KB (KB-V1 cells; listed as doxorubicin): > 79; Ratio (HL-60/ADR cells; listed as doxorubicin): > 75 |
| O=C1c2c(O)ccc(O)c2C(=O)c2c(NCCNCCO)ccc(NCCNCCO)c21 [Mitoxantrone, reference compound] | 3.0 |  | 15 | >120 |  | 132 nM | 256 nM | 401 nM | 17 nM | 259 nM | 25 nM | > 3000 nM | 1.9 | Ratio (S1-M1 cells; listed as mitoxantrone): > 120 |

Reference: US7524849B2, “5-arylpyrimidines as anticancer agents” (Wyeth Holdings Corporation, priority 2003, dated 2009)
